Key:
[1] = system: human pancreatic cancer cells (BxPC-3); test: MTT antiproliferative assay, BxPC-3; format: cell-based
Protocol: (§1) Human lung cancer cell (A549,), human umbilical vein endothelial cells (HUVECs,), human colon cancer cell lines (HCT-15), human breast cancer cells (MCF-7), human liver cancer cells (HepG2), human pancreatic cancer cells (BxPC-3), and human hepatic cell line (L-02) were obtained from the Sichuan University. A549, HUVECs, and L-02 were cultured in DMEM medium (high glucose, HyClone, GE Healthcare, Sydney, Australia). Human colon cancer cell lines HCT-15, human pancreatic cancer cells […] BxPC-3 were cultured in RPMI-1640. Human breast cancer cells MCF-7 and human liver cancer cells HepG2 were cultured in MEM medium. All the mediums, including 10% fetal bovine serum (FBS, HyClone, GE Healthcare, Sydney, Australia) and 1% ampicillin/streptomycin, were used to culture the above cells at 37 °C in a humidified atmosphere (5% CO2 and 95% air).
(§2) The antiproliferative activity of the title compounds was determined using the MTT (3-(4,5-dimethylthiazol-2-yl)-2,5-diphenyltetrazolium bromide, Sigma-Aldrich, Saint Louis, MO, USA) assay on different cells. Cells lines were seeded into 96-well plates at a density of 2000 to 6000 cells/well. DMSO was used to dissolve the test compounds, and TET was used as a positive control. After 24 h, the test compounds were added at different concentrations (0.625, 1.25, 2.5, 5, 10, and 20 μM) and incubated at 37 °C for 72 h. MTT was added to each well at a final concentration of 0.5 mg/mL and incubated at 37 °C for 4 h. Then, 150 μL of DMSO was added to each well to dissolve the formazan crystals. The absorbance was measured at 570 nm by a microplate reader (ELX800UV, Bio-Tek, Windoski, VT, USA). All measurements were repeated at least three times under the same conditions. Graphpad Prism 8.0 was used to calculate the IC50 values.

HCT-15 cells [2] = test: Live/dead FDA/PI double staining, HCT-15; format: cell-based; details: Homo sapiens, HCT-15, FDA/PI, 48 h, read-out: Viable cells retained
Protocol: HCT-15 or HUVEC cells were cultured in six-well plates for 24 h. The cells were washed with PBS and incubated with medium containing 0.625, 1.25, 2.5, 5, and 10 μM of 16 for 48 h. Afterwards, the medium was replaced, and the cells were washed twice with PBS, resuspended in the solution containing 100 μL FDA (0.02 mg/mL, Sigma, St. Louis, MO, USA) and 30 μL PI (0.02 mg/mL, Sigma, St. Louis, MO, USA), and treated in the dark at room temperature for 10 min. The cells were imaged with a fluorescence microscope (Nikon ECLIPSE TE2000-U, Tokyo, Japan).

[3] = system: human colon cancer cells (HCT-15); test: MTT antiproliferative assay, HCT-15; format: cell-based
Protocol: as §1, §2

p62/SQSTM1 (P62) = test: Western blot, p62/SQSTM1 in HCT-15 cells; format: cell-based, human; details: HCT-15, 1.25, 2.5, and 5 μM, concentration-dependent, p < 0.05
Protocol: (§3) The protein levels in HCT-15 cells were evaluated via Western blot analysis. The cells were cultured in dishes (10^7 cells per dish) and incubated overnight at 37 °C, 0.625, 1.25, 2.5, and 5 μM of 16 was added in triplicate after 24 h of incubation. Then, the cells were harvested and lysed in Laemmli buffer (glycerol, 1M TRIS pH 6.8, 1% SDS, MQ H2O and 20% β-mercaptoethanol). The samples were boiled for 5 min at 95 °C, and the protein content was determined using a BCA kit. Equal amounts of 30 μg of sample were placed on a Tris/HCl gel and separated by SDS-PAGE electrophoresis. Then, the samples were transferred to a PVDF membrane (Milibo, Co., Ltd., Billyka, MA, USA) and blocked with 5% skimmed milk powder for 2 h. Diluted primary antibodies Bcl-2 (1:3000), Bax (1:10,000), caspase-3 (l:2000), p62 (1:1000), Beclin1 (1:1000), LC3 (1:2000), and β-actin (1:1000) were incubated overnight at 4 °C, followed by a horseradish peroxidase-conjugated goat anti-rabbit IgG secondary antibody (ProteinTech, China) for 2 h at room temperature. Then, immunoreactivity was developed with diaminobenzidine solution, and scanned and recorded by a gel imaging system (G:BOX Chemi XL1.4, Frederick, MD, USA).

caspase-3 = test: Western blot, caspase-3 in HCT-15 cells; format: cell-based, human; details: HCT-15, 0.625, 1.25, and 2.5 μM, p < 0.05, no concentration dependence
Protocol: as §3

HCT-15 cells [4] = test: Cell cycle analysis by flow cytometry; format: cell-based, human; details: HCT-15, 1.25, 2.5, and 5 μM, 24 h
Protocol: HCT-15 cells were cultured in six-well plates overnight at 37 °C. The cells were treated with 1.25, 2.5, 5 μM of 16 or DMSO and incubated for 24 h. Afterwards, the cells were harvested, and 70% ice cold ethanol was used to fix cells at 4 °C. Subsequently, the cells were centrifuged to remove the fixative solution, washed twice with PBS, and exposed to 500 μL of PI/RNase working solution (Keygen Biotech, Nanjing, China) at 4 °C for 30 min in the dark. The cell cycle distribution was analyzed by flow cytometry.

HUVECs = test: Wound healing (migration) assay, HUVEC; format: cell-based, human; details: 10 μM, 24 h, control 85%
Protocol: HCT-15 cells or HUVECs were seeded in six-well culture plates and allowed to grow to 80–90% confluence. Subsequently, a cell-free line was manually created by scratching the confluent cell monolayers with a 200 μL sterile pipette tip, and the detached cells were washed with PBS. The cells were then incubated with 10% FBS and different concentrations of 16 (0.625, 1.25, 2.5, 5, and 10 μM). Then, 24 h later, images of the same location were obtained using a microscope (Nikon ECLIPSE TE2000-U, Tokyo, Japan). Each experiment was carried out at least three times.

HCT-15 cells [5] = test: Flow cytometry Annexin V-FITC/PI apoptosis analysis; format: cell-based, human; details: 48 h
Protocol: HCT-15 cells were cultured in complete medium in six-well plates for 24 h, and […]. 2.5, 5 μM of 16 was added in triplicate for 48 h incubation. The cells were digested with trypsin without EDTA, washed twice with cold PBS, and resuspended in 500 μL binding buffer. The cell suspension was stained successively with 5 μL Annexin V-FITC and 5 μL PI (Keygen Biotech, Nanjing, China), and cultured for 15 min and 5 min in total dark, respectively. Afterwards, the percentages of apoptotic cells were determined by a flow cytometry. Data were analyzed by FlowJo software (Version 10, FlowJo, LLC, Ashland, OR, USA).

IC50 ([1]; 72 h): 1.12 ± 0.1 µM | IC50 ([1]; Homo sapiens, BXPC-3, 72 h): < 1.5 µM | IC50 ([3]; Homo sapiens, MTT, 72 h, HCT-15): 0.57 ± 0.03 µM
Structure (SMILES): COc1cc(NC(=O)[C@@H]2CCCN2)c2cc1Oc1ccc(cc1)C[C@H]1c3cc(c(OC)cc3CCN1C)Oc1c(OC)c(OC)cc3c1[C@H](C2)N(C)CC3 [Compound 16, 14-N-(L-proline)-tetrandrine]
viability at 5 µM (HCT-15 cells [2]; 5 μM): 18.3% | viability at 10 µM (HCT-15 cells [2]; 10 μM): 17.6% | Improvement of antiproliferative activity compared with TET ([3]; HCT-15 cells, vs TET (IC50 = 6.12 μM)): higher than 10 fold | P62 contents (p62/SQSTM1 (P62)): significantly lessened | Caspase-3 level (caspase-3): significantly decreased | Effect on cell cycle redistribution (HCT-15 cells [4]): no significant influence on cell cycle redistribution | Migration rate (HUVECs): 10.0% | Apoptotic rate (HCT-15 cells [5]; HCT-15, 2.5 μM): 25.4% | Apoptotic rate (HCT-15 cells [5]; HCT-15, 5 μM): 52.7% | Necrotic rate (HCT-15 cells [5]; HCT-15, 5 μM): 35.5%

Source: paper PMC9268013, “Design, Synthesis, and Biological Evaluation of N14-Amino Acid-Substituted Tetrandrine Derivatives as Potential Antitumor Agents against Human Colorectal Cancer” (Molecules, 2022)
